Experimental data from ChEMBL document CHEMBL1201862, “PubChem BioAssay data set” (2004).
Active and inactive are the calls of the source.

What was measured:
[1] = molecular target: G2/mitotic-specific cyclin-B1 (Homo sapiens, UniProt P14635); assay: Counterscreen assay for inhibitors of Wee1 degradation: dose response cell-based assay to identify inhibitors of cyclin B degradation. [Related pubchem assays: 1410, 1321 ]; type: functional
Wee1-like protein kinase = Wee1-like protein kinase (Homo sapiens, UniProt P30291); assay: Dose Response Cell-based Assay for Inhibitors of Wee1 Degradation. [Related pubchem assays: 1410, 1321 ]; type: functional
Estrogen receptor = molecular target: T1, Estrogen receptor (Homo sapiens, UniProt P03372);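 further: potency for inhibiting coactivator peptide recruitment to the receptor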
T1 sequence (P03372 whole entry): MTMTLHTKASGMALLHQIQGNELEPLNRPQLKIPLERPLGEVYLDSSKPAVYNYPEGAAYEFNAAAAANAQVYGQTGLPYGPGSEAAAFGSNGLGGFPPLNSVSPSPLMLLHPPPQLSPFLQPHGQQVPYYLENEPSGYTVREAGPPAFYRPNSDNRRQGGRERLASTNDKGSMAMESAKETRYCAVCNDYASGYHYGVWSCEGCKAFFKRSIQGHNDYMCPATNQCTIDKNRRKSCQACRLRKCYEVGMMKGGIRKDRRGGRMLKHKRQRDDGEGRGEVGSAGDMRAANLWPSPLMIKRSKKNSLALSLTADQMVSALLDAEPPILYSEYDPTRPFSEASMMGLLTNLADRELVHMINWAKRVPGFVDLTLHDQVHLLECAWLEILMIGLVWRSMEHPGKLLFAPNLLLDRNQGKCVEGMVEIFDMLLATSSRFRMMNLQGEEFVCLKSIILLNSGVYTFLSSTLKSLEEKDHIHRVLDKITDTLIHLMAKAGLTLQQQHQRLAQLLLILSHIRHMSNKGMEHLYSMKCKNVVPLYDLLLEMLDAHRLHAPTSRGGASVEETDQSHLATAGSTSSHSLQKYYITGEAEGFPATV

NADPH oxidase 1 = NADPH oxidase 1 (Homo sapiens, UniProt Q9Y5S8); type: functional, cell-based;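 further: Cell-based assay with luminescence read-out, IC50 derived from inhibitor dose-response curves; intracellular ROS from endogenous NOX1 in intact HT29 colon cancer cells; potency of inhibitors that lower the ROS luminescence signal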
HEK293 [2] = assay: inhibition of NOD1-driven NF-kB reporter – cell-based, luminescence, uHTS, primary screen (AID 1578); type: functional; settings: Homo sapiens
cells = type: functional, cell-based
[3] = system: Streptococcus sp. 'group A'; assay: Streptococcus pyogenes SK(-)GAS viability under kanamycin – luminescence, BacTiterGlo, confirmation, counter-screen for streptokinase expression inhibitor project, dose response (AID 1900); type: functional, organism-based
[4] = luciferase reporter signal reduction – luminescence, H4-C neuroglioblastoma cells, dose response (AID 2458); type: functional, cell-based;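 further: H4 neuroglioblastoma cells stably carrying a luciferase reporter gene fusion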
[5] = molecular target: T2, Mannose-6-phosphate isomerase (Homo sapiens, UniProt P34949); assay: MPI inhibition at elevated mannose 6-phosphate – biochemical, fluorescence intensity, high mannose 6-phosphate, primary screen (AID 1220)
T2 sequence (P34949 whole entry): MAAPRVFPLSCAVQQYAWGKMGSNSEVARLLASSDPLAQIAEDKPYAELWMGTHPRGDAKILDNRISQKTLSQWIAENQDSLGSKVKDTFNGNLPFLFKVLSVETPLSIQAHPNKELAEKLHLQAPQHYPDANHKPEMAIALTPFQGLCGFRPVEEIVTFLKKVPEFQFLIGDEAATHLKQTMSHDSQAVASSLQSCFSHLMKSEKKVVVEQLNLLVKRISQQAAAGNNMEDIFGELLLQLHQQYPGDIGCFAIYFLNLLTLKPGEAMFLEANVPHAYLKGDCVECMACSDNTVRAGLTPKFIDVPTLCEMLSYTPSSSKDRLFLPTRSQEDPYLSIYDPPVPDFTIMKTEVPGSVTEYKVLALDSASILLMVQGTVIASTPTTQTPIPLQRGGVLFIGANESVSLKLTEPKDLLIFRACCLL

INS1 = assay: INS-1E survival protection against cytokine death – cell-based, luminescence, retest, dose response (AID 449756); type: functional; settings: Rattus norvegicus;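 further: cell death triggered by IL-1 beta plus TNF-alpha plus IFN-gamma mixture; protective hits raise ATP signal compared with cytokine alone wells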
HEK293 [6] = assay: cells; type: functional, cell-based; settings: Homo sapiens
[7] = Trypanosoma cruzi growth suppression in host cells – NIH3T3 host cells, beta-gal luminescence, confirmation (AID 2044); type: functional, cell-based;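 further: intracellular parasites grown in NIH/3T3 mouse fibroblasts as host cells; luminescent beta-galactosidase reporter signal from transgenic T. cruzi replicating inside host cells; inhibitors lower the luminescence signal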
[8] = luciferase reporter signal suppression in cells – H4 neuroglioma cells, luminescence, dose response (AID 1990); type: functional, cell-based
[9] = alpha-synuclein stem-loop luciferase translation blockers – H4 neuroglioma cells, luminescence, confirmation (AID 1988); type: functional, cell-based
[10] = NIH3T3 cell viability loss – ATP luminescence, mouse fibroblasts, counter-screen, dose response (AID 2010); type: functional, cell-based;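 further: cells exposed to compound for about 90 hours before reading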
Streptococcus = assay: GAS UMAA2166 growth inhibition – luminescence, BacTiterGlo, counter-screen for streptokinase expression inhibitor project, dose response (AID 1915); type: functional, organism-based;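 further: potency for reduction of bacterial viability or growth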
[11] = alpha-synuclein stem-loop translation blockers – luminescence, H4 neuroglioblastoma cells, dose confirmation, confirmation (AID 2454); type: functional, cell-based;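 further: H4 neuroglioblastoma cells carrying an alpha-synuclein 5'UTR luciferase reporter; potency for inhibition of the luciferase signal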
HEK293 [12] = assay: cells; type: functional, cell-based; settings: Homo sapiens; remark: listed apart in the source
[13] = molecular target: T2, Mannose-6-phosphate isomerase; assay: MPI enzyme activity inhibition – biochemical, fluorescence intensity, coupled assay, primary screen (AID 1209)
HEK293 [14] = assay: cells; type: functional, cell-based; settings: Homo sapiens; remark: listed apart in the source
HEK293 [15] = assay: NOD2 signaling inhibitors in MDP-stimulated cells, cell-based, uHTS, luminescence (AID 2001); type: functional; settings: Homo sapiens
[16] = molecular target: Nucleotide-binding oligomerization domain-containing protein 2 (Homo sapiens, UniProt Q9HC29); assay: inhibition of NOD2-driven NF-kB reporter – cell-based, luminescence, uHTS, HEK293 (AID 1566); type: functional
Cytochrome P450 2C19 [17] = molecular target: T3, Cytochrome P450 2C19 (Homo sapiens, UniProt P33261); assay: Cytochrome panel assay with activity outcomes. Panel member name: p450-cyp2c19 Compounds with AC50 equal or less than 10 uM are considered active; type: functional; settings: read-out: AC50
Cytochrome P450 2D6 = Cytochrome P450 2D6 (Homo sapiens, UniProt P10635);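 further: CYP2D6 member of a cytochrome P450 panel assay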
Cytochrome P450 2C19 [18] = molecular target: T3, Cytochrome P450 2C19; assay: qHTS Assay for Inhibitors and Substrates of Cytochrome P450 2C19. [Related pubchem assays: 410 ]; type: ADME; settings: read-out: Potency

T3 sequence (P33261 whole entry): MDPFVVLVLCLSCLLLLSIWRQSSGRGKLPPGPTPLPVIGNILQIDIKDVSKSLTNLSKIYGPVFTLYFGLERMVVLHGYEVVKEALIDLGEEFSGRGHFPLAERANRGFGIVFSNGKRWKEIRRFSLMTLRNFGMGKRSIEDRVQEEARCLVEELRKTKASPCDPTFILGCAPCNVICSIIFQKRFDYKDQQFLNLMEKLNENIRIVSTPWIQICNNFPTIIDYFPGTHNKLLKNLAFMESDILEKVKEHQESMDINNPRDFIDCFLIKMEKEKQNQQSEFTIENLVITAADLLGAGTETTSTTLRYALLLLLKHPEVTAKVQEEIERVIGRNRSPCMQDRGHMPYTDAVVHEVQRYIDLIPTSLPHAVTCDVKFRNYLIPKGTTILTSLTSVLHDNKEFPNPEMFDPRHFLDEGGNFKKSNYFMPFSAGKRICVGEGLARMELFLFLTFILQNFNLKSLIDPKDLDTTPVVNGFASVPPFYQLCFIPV
Sequence of NADPH oxidase 1 (Q9Y5S8 whole entry): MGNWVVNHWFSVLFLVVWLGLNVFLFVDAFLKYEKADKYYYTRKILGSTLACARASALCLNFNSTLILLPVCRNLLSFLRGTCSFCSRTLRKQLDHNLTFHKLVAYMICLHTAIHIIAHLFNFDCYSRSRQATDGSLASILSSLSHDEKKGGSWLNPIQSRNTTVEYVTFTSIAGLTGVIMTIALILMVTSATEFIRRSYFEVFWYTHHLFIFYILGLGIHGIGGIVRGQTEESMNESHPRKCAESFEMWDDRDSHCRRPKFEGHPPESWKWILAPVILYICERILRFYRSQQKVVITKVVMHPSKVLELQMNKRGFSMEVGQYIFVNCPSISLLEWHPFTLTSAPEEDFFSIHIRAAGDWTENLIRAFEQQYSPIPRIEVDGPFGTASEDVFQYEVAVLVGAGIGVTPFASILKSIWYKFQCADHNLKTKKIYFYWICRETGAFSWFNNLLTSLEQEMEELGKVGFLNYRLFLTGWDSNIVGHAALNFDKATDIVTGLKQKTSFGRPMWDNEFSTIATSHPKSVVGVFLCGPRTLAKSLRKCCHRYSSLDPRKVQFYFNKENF
Sequence of G2/mitotic-specific cyclin-B1 (P14635 whole entry): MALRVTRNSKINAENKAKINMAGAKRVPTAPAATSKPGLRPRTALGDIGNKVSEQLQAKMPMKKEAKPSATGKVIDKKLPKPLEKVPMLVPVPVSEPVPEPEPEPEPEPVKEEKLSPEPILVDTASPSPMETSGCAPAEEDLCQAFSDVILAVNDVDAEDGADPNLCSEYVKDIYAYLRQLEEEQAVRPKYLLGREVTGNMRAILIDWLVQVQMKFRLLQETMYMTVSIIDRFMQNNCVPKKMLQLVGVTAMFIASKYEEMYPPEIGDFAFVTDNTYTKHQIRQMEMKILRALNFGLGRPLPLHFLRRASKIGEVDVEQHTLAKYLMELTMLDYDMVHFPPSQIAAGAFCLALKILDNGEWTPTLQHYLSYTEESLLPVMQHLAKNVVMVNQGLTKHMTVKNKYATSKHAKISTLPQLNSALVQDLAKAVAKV
Sequence of Wee1-like protein kinase (P30291 whole entry): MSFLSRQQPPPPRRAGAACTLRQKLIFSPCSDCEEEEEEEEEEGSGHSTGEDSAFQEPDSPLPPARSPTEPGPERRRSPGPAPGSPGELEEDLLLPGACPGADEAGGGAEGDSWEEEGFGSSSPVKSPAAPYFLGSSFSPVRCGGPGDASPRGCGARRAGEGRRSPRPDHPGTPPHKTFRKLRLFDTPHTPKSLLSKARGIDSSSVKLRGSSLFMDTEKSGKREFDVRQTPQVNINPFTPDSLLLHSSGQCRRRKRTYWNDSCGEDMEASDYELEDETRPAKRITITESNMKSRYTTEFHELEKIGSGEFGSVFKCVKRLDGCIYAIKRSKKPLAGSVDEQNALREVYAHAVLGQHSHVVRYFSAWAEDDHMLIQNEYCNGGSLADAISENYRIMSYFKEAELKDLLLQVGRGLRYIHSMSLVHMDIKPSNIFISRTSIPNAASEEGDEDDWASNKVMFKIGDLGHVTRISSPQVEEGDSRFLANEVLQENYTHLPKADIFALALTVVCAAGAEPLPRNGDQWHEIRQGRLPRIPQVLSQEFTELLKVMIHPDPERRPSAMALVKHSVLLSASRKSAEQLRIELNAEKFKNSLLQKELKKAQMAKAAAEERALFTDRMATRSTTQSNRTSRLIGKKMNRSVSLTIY
Sequence of Nucleotide-binding oligomerization domain-containing protein 2 (Q9HC29 whole entry, the tested form may be a part): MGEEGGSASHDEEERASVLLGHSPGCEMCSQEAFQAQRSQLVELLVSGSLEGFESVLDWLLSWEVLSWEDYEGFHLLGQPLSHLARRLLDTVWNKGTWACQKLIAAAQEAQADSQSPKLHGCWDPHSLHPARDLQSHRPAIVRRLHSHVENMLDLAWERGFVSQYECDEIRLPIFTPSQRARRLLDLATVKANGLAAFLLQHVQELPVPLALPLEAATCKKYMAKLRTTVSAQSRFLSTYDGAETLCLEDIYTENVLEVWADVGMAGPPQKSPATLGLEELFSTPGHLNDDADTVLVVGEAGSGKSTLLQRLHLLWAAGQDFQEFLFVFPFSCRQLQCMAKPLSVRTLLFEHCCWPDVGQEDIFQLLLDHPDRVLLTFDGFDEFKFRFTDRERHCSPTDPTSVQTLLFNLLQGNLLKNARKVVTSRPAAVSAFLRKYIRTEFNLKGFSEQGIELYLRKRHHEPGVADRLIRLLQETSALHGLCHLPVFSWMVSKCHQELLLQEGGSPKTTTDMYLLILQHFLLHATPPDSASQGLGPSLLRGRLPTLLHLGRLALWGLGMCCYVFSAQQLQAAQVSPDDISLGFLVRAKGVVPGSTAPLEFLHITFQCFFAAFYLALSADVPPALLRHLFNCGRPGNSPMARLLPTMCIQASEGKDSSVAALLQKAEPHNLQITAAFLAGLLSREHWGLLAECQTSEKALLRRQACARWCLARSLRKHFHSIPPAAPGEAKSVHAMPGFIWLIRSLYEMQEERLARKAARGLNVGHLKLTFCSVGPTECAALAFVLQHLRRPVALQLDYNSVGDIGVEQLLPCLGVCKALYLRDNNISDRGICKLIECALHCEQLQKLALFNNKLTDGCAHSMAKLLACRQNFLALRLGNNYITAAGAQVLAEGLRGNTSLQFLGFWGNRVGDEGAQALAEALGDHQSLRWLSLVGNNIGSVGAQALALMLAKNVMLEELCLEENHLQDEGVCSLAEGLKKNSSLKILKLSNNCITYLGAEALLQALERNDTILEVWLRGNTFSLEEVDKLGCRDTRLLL
Sequence of Cytochrome P450 2D6 (P10635 whole entry): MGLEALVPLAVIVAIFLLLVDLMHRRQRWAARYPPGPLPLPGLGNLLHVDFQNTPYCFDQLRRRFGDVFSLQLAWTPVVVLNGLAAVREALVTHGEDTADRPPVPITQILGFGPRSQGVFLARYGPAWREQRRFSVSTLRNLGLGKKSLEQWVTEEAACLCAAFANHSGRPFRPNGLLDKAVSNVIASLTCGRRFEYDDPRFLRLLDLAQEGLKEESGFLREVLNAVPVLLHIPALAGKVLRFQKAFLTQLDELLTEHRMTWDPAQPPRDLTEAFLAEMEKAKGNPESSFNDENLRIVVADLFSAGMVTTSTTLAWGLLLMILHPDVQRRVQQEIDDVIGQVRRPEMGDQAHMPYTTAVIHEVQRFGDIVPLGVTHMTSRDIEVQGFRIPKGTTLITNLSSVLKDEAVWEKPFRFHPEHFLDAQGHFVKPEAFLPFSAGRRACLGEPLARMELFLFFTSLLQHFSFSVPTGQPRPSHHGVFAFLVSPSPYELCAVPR

COc1cccc(/C=N/NC(=O)c2cc3c(OC)c(OC)ccc3[nH]2)c1OC
EC50 [1]: > 49.7 µM (not active) | EC50 (Wee1-like protein kinase): > 49.7 µM (not active)

CCCc1cc(-n2ccnc2)n2c(nc3ccccc32)c1C#N
IC50 (Estrogen receptor): 29.8 µM (active)

Cc1ccc(-c2nc(-c3ccccc3)c(-c3ccccc3)[nH]2)cc1
IC50 (NADPH oxidase 1): > 17 µM (not active)

Oc1c(CN2CCN(c3ccccn3)CC2)cc(Cl)c2cccnc12
EC50 (HEK293 [2]): 4.58 µM (active) | EC50 (cells): > 12 µM (inconclusive) | EC50 [3]: 3.06 µM (active) | EC50 [4]: 10.7 µM (active) | IC50 [5]: > 50 µM (not active) | AC50 (INS1): 1.99 µM (active) | IC50 (HEK293 [6]): > 20 µM (inactive) | EC50 [7]: 942 nM (active) | EC50 [8]: 2.52 µM (active) | EC50 [9]: < 100 nM (active) | EC50 [10]: 7.32 µM (active) | EC50 (Streptococcus): 5.45 µM (active) | EC50 [11]: > 12 µM (not active) | IC50 (HEK293 [12]): 6.23 µM (active) | IC50 [13]: > 50 µM (not active) | IC50 (HEK293 [14]): > 20 µM (inactive) | IC50 (HEK293 [15]): 4.88 µM (inactive) | EC50 [16]: 8.07 µM (active)

O=[N+]([O-])c1cccc2c(Br)n[nH]c12
AC50 (Cytochrome P450 2C19 [17]): 251 nM (inconclusive) | AC50 (Cytochrome P450 2D6): 251 nM (inconclusive) | AC50 (Cytochrome P450 2C19 [18]): 1 nM (inconclusive)
